Experimental data published in publication PMC9227536, “Prediction of Pharmacokinetics of IDP-73152 in Humans Using Physiologically-Based Pharmacokinetics” (Pharmaceutics, 2022).

Key:
[1] = Stability in plasma, mouse; assay type: in vitro ADME; settings: mice plasma
Protocol: (§1) The unbound fractions of IDP-73152 in various matrices were measured according to the manufacturer's instructions for the rapid equilibrium dialysis (RED) device (ThermoFisher Scientific, Waltham, MA, USA). Briefly, IDP-73152 was added to the plasma or the microsomal/hepatocyte incubation buffer from various species (i.e., mouse, rat, dog, and human for microsomal incubation; rat for hepatocyte incubation) to obtain final concentrations of the compound at 0.3, 1, and 3 μM. After the membrane insert was placed in the RED plate, the solution containing IDP-73152 was added (400 μL) to the sample chamber, and the dialysis buffer (600 μL) was added to the buffer chamber. The RED plate was sealed with parafilm and then incubated at 37 °C in the orbital shaker (Lab Companion, Daejeon, Korea) at 100 rpm for 5 h. […] The IDP-73152 concentration in the buffer/sample chambers (i.e., CBuffer Chamber and CSample Chamber) was determined by an assay. Thus, the fraction unbound was defined as:(2) % Fraction unbound=(CBuffer Chamber/CSample Chamber)×100% When necessary, the stability of IDP-73152 in the matrix was also determined at 5 h. […] Accordingly, the kinetics of IDP-73152 instability were determined in the rat blood at a final concentration of 0.3 μM. […]

[2] = Stability in plasma, human; assay type: in vitro ADME; settings: humans plasma
Protocol: as §1

[3] = PBPK model prediction, rats
From the text: In this study, the PBPK model involving ten tissues (i.e., adipose tissue, brain, heart, kidney, liver, lung, muscle, skin, spleen, and testis (Figure 2; see Appendix A for detailed mathematical descriptions)) was considered to be applicable for the description of IDP-73152 PK in rats, mice, dogs, and humans. Physiological variables were obtained from the literature; they are summarized in Supplementary Table S1.
In addition, from metabolic stability studies, it was evident that IDP-73152 was metabolically unstable in the incubations containing liver microsomes (from all species)/hepatocytes (from rats) and in the rat plasma. […] Accordingly, during model development, we initially assumed that IDP-73152 was entirely eliminated by the metabolism in the liver (namely, CLh) and in the blood (namely, CLblood) in rats: For other species (i.e., mice, dogs, and humans), the elimination was assumed to be primarily mediated by metabolism in the liver. From the results of in vitro metabolic stability studies, the hepatic clearance (CLh) in rats was estimated under the assumption that the well-stirred liver model was adequate for IDP-73152 [29]:(9) CLh=QLI×BP×fu,p×CLu,int,H/QLI×BP+fu,p×CLu,int,H, where QLI, and fu,p represent the liver blood flow and the unbound fraction of IDP-73152 in the plasma, respectively.
For the estimation of the volume of the distribution of IDP-73512 in rats, the steady-state volume of distribution (Vss) was calculated using the following equation [30]:(10) Vss=VP+Vrbc×EP+∑VT,i×KP,ss,i, where Vp, Vrbc, and VT,i are the volumes of plasma, red blood cells, and tissues, respectively. The erythrocyte-to-plasma partition coefficient (EP), is calculated by EP=1+(BP−1)/Hematocrit . The KP,ss for each tissue obtained from Equation (8) was applied for Equation (10). For the case of non-eliminating organs, the KP,ss was regarded as the tissue-to-plasma partition coefficient (KP) in PBPK equations (Appendix A). For the case of the liver—i.e., the eliminating organ—the KP,ss (KP,ss,LI) had to be corrected to account for the equilibrium being altered by the elimination. Thus, a PBPK-operative KP for liver (KP,LI) was calculated using the following equation [31]:(11) KP,LI=KP,ss,LI/(1−ER), where ER is the hepatic extraction ratio of the compound (i.e., CLh/(QLI·BP)). In this study, a compartmental absorption and transit (CAT) model consisting of stomach and five intestinal segments was considered for the description of the intestinal absorption kinetics of IDP-73152 in animals and humans. We assumed that the initial compartment denoted the stomach (Equation (12)), and the subsequent three compartments represented the small intestine and two additional compartments for the large intestine (i.e., a total of six compartments, with absorption occurring in the five intestinal compartments) (Equation (13)). […]
For the intestine, viz. i = 1~5:(13) dMi/dt=Kt,i−1×Mi−1−(Kt,i+ka,i)×Mi, where Ms is the amount of drug in the stomach; Mi is the amount of drug in the i-th intestinal segment; Ks, Kt,i, and ka,i are the rate constants of gastric emptying, intestinal transit, and the segmental absorption rate, respectively. […] The absorption rate constant in the intestinal segments in humans, ka,i,human, was assumed to be identical along the segments and calculated as follows: first, Peff was empirically estimated from the Caco-2 cell permeability (Papp):(14) LogPeff=0.4926×LogPapp−0.1454 […]

the bacterial strains = assay: In vitro minimum inhibitory concentration, preliminary screening; assay type: cell-based; settings: preliminary screening study, against the bacterial strains
hepatic CYP3A = assay: Preliminary studies of metabolic pathway; assay type: in vitro ADME
[4] = system: penicillin-resistant Streptococcus pneumonia; settings: infected mice, twice-a-day dosing; cited from earlier work

## CC(C)(C)[C@H](NC(=O)[C@H](CC1CCCC1)CN(O)C=O)C(=O)N1CCC(NCc2cc(F)c(F)cc2F)CC1 [IDP-73152]
[1]; 5 h, 37 °C
  percentage remaining in plasma at 5 h: 92.3 ± 2.7%
[1]; preliminary study
  stability in plasma: stable
[2]; 5 h, 37 °C
  percentage remaining in plasma at 5 h: 98.2 ± 3.4%
[2]; preliminary study
  stability in plasma: stable
[3]; intravenous 2.5 mg/kg
  AUC ratio (Predicted AUCinf/Observed AUCinf): 1.09
[3]; intravenous 10 mg/kg
  AUC ratio (Predicted AUCinf/Observed AUCinf): 1.14
[3]; oral
  Cmax ratio without the scaling (SF): 2.36
[3]; oral 20 mg/kg
  AUC ratio (Predicted AUCinf/Observed AUCinf): 1.03
  Cmax ratio (Predicted Cmax/Observed Cmax): 1.02
The bacterial strains
  in vitro minimum inhibitory concentration values: comparable to, or less than, those of linezolid and vancomycin
Hepatic CYP3A
  primary metabolic pathway: mediated by hepatic CYP3A
[4]
  ED50 (oral dose at which the survival rate was 50%): 3.0 mg/kg
